Calls of active or inactive are those of the source. How the calls were made is not given here.
The compounds below were run on UPR adaptive arm reporter cells, luciferase luminescence (assay: adaptive unfolded protein response reporter activation – cell-based, luciferase luminescence, dose response (AID 489032)).

Compound	EC50
Cn1c(-c2ccccc2)c(/C=N/NC(=O)c2ccc(O)cc2)c2ccccc21	> 80 µM (inactive)
CCCNC(=O)c1ccc2c(=O)c(O)c(-c3ccc(OC)cc3)[nH]c2c1	> 80 µM (inactive)
O=c1cc2oc3cc(O)c(O)cc3c(-c3ccccc3[N+](=O)[O-])c-2cc1O	> 80 µM (inactive)
Cc1ccc(-c2nc(N/N=C/c3cccc([N+](=O)[O-])c3)c3ccccc3n2)cc1	> 80 µM (inactive)
COC(=O)Cc1csc(/N=C/c2c(O)n(-c3cccc(C(F)(F)F)c3)c(=O)c3ccccc23)n1	> 80 µM (inactive)
N#CCC(=O)N/N=C/c1cn(Cc2ccc3ccccc3c2)c2ccccc12	71 µM (inactive)
COc1cc(N(C(=O)Cc2cccs2)C(C(=O)NC2CCCCC2)c2ccc(C)cc2)ccc1-n1cnnn1 (stereo not given)	> 80 µM (inactive)
CCC(Sc1nnc2c3ccccc3n(CC)c2n1)C(=O)Nc1sc2c(c1C#N)CCCC2 (stereo not given)	16.5 µM
CCOc1ccc(C(=O)Nc2cc(-c3nc4ccccc4[nH]3)ccc2Cl)cc1[N+](=O)[O-]	24.2 µM (inactive)
COc1ccc(-c2csc(C3=C(O)CN(Cc4ccc(Cl)cc4)C3=N)n2)cc1OC	> 80 µM (inactive)
CCOc1ccc(Cn2c3ccc(OC)cc3c3nc4ccccc4nc32)cc1OC	> 80 µM (inactive)
O=C(NN1C(=O)/C(=C/c2ccc(O)c(O)c2)SC1=S)c1ccccc1	> 80 µM (inactive)
Cc1ccc2c(c1)C(=O)C(=O)N2Cc1ccc(C(F)(F)F)cc1	27.5 µM (inactive)
COc1ccc(/C=N/Nc2cc(C)nc3ccc(Br)cc23)cc1	> 80 µM (inactive)
CCN(CC)S(=O)(=O)c1ccc(N/N=C(\C)c2ccc3c(c2)OCO3)c([N+](=O)[O-])c1	22.1 µM (inactive)
NS(=O)(=O)c1ccc(N/N=C2/CCCCC2C2CCCCC2)c([N+](=O)[O-])c1 (stereo not given)	> 80 µM (inactive)
COc1ccc(-c2csc3nc(-c4ccc(C)cc4)oc(=O)c23)cc1OC	> 80 µM (inactive)
O=C(NCC1CCCO1)c1nn2c(C(F)(F)F)cc(-c3cc(Br)cs3)nc2c1Br (stereo not given)	> 80 µM (inactive)
O=C(Nc1nc2ccc(Cl)cc2s1)c1ccc(N2CCCCC2)c([N+](=O)[O-])c1	> 80 µM (inactive)
O=C1NC(=O)N(Cc2ccc(F)cc2)C(=O)/C1=C/c1cccs1	> 80 µM (inactive)
